Assay results published in paper PMC5927803 (Pharmacology Research & Perspectives, 2018).
Where “and” joins values, the source holds several entries; their conditions need not be identical. Equal values may be shown once. Read-outs that look alike come from different tables or passages of the source.

What was measured:
cM5 mAChR = molecular target: T1, cM5 mAChR (Pan troglodytes, UniProt Q5IS53); assay: Inhibition of agonist-stimulated calcium mobilization; format: cell-based, chimpanzee
T1 sequence (Q5IS53 1-532): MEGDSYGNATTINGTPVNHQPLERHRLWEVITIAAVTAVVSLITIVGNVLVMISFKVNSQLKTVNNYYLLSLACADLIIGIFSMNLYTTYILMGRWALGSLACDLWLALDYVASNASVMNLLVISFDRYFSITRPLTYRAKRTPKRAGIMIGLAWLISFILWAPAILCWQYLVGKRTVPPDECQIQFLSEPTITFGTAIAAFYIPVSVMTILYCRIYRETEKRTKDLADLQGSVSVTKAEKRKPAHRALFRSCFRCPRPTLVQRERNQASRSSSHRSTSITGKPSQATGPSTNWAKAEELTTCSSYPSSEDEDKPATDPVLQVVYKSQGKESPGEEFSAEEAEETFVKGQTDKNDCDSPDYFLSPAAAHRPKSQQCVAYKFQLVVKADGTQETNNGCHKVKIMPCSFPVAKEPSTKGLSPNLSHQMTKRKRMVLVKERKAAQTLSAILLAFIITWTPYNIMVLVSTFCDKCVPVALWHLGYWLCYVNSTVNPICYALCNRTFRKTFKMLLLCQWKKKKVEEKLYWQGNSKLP

[1] = tested on: human isolated bronchial tissue; settings: human bronchus, carbachol; cited from earlier work
[2] = tested on: rat isolated tracheal tissue; assay: Antagonism of ACh-evoked contraction: potency and offset time
hM2 mAChR [3] = molecular target: T2, hM2 mAChR (Homo sapiens, UniProt P08172); settings: cited from earlier work
T2 sequence (P08172 1-466): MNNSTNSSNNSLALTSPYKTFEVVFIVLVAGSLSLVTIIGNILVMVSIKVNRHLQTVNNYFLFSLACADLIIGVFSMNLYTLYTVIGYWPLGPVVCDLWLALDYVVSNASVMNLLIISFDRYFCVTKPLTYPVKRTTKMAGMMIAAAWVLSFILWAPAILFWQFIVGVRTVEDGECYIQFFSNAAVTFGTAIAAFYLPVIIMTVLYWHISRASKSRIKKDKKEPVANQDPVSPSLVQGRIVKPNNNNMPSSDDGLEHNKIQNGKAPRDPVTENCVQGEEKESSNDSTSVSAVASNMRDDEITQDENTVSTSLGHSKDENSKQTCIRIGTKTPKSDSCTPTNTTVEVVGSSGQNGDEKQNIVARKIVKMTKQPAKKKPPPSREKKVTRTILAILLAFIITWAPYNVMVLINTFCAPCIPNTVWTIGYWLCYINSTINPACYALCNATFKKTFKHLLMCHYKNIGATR

hM3 mAChR [4] = molecular target: T3, hM3 mAChR (Homo sapiens, UniProt P20309); settings: cited from earlier work
hM5 mAChR [5] = molecular target: T4, hM5 mAChR (Homo sapiens, UniProt P08912); assay: Saturation radioligand binding
T4 sequence (P08912 1-532): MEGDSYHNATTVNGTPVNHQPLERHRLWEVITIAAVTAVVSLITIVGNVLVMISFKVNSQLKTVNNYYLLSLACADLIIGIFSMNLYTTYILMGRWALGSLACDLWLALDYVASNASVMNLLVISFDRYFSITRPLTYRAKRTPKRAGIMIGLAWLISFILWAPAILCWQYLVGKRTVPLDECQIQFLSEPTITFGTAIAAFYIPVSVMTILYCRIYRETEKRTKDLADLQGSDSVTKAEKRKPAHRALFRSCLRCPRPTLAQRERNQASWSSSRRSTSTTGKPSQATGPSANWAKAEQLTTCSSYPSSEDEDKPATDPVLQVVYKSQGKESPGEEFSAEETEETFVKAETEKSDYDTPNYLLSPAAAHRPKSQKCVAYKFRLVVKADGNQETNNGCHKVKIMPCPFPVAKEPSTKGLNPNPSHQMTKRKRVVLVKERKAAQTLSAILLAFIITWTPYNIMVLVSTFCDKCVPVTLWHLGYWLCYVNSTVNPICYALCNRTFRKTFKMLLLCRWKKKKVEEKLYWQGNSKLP

hM3 mAChR [6] = molecular target: T3, hM3 mAChR; assay: Reversibility of antagonism of ACh-induced calcium mobilization, CHO-K1 cells; format: cell-based
hM4‐Gα16 mAChR = molecular target: T5, hM4‐Gα16 mAChR (Homo sapiens, UniProt P08173); assay: Inhibition of agonist-stimulated calcium mobilization; format: cell-based
T5 sequence (P08173 1-479): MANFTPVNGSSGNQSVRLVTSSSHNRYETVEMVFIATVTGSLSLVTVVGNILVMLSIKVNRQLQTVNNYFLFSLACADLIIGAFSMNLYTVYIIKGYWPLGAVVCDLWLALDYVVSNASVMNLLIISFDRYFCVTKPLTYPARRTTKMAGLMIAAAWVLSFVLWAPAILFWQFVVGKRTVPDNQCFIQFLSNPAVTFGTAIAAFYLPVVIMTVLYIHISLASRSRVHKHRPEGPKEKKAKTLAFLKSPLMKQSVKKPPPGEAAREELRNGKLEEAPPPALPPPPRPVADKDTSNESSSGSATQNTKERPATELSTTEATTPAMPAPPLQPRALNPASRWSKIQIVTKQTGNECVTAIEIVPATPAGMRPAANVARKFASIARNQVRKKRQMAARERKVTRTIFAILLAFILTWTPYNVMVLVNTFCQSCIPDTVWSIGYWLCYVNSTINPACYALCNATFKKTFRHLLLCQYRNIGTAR

[7] = tested on: panel of 81 receptors, enzymes, and channels; assay: Off-target panel screen; format: binding; settings: 1 μmol L^−1
hM4 mAChR [8] = molecular target: T6, hM4 mAChR (Homo sapiens, UniProt P08173); assay: Competition radioligand binding, [^3H]NMS
T6 sequence (P08173 1-479): T5 sequence (P08173 1-479)

hM2 mAChR [9] = molecular target: T2, hM2 mAChR; assay: Inhibition of agonist-stimulated [^35S]GTPγS binding, CHO-K1 membranes; format: biochemical; settings: absence of agonist
hM2 mAChR [10] = molecular target: T2, hM2 mAChR; assay: Association and dissociation binding kinetics; settings: 37°C
hM4 mAChR [11] = molecular target: T6, hM4 mAChR; assay: Saturation radioligand binding
[12] = tested on: human isolated bronchial tissue; assay: Antagonism of carbachol-evoked contraction: potency and offset time; settings: superfusion washout, 10‐100 nmol·L^−1, 1 μmol L^−1 CCh, 10 hours perfusion
hM3 mAChR [13] = molecular target: T3, hM3 mAChR; assay: Inhibition of agonist-stimulated calcium mobilization; format: cell-based
hM1 mAChR [14] = molecular target: T7, hM1 mAChR (Homo sapiens, UniProt P11229); assay: as above; format: cell-based
T7 sequence (P11229 1-460): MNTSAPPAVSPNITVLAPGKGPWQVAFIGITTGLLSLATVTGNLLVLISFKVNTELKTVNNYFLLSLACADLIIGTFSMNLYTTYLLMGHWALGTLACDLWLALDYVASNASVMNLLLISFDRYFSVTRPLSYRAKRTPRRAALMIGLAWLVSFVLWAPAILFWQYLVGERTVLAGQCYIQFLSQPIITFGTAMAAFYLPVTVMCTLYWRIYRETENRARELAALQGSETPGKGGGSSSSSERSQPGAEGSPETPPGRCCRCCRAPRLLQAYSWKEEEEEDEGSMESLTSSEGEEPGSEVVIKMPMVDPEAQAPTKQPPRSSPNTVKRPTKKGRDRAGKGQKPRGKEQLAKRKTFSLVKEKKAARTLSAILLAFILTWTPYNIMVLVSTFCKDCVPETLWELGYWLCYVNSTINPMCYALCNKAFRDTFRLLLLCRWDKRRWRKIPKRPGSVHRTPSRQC

[15] = tested on: bronchoconstrictor response to ACh or methacholine (MCh); settings: dogs, inhalation dosing; cited from earlier work
hM1 mAChR [16] = molecular target: T7, hM1 mAChR; assay: Saturation radioligand binding
hM3 mAChR [17] = molecular target: T3, hM3 mAChR; assay: Competition radioligand binding, [^3H]NMS; settings: hM3 pKI, [^3H]NMS competition, CHO-K1 membranes, 37°C; mean ± SD
hM3 mAChR [18] = molecular target: T3, hM3 mAChR; assay: Saturation radioligand binding
[19] = tested on: guinea pig isolated trachea; assay: Inhibition of EFS contraction: potency and offset time; settings: IC90 concentration, washout
Guinea Pig H1 (central) = Guinea Pig H1 (central) (Cavia porcellus, UniProt P31389); assay: Off-target panel radioligand binding; settings: read-out: % Inhibition Specific Binding (1 µM)
[20] = molecular target: cloned human 5‐HT4(C) receptors (Homo sapiens, UniProt Q13639); assay: 5-HT4 agonist assay; format: cell-based
[21] = tested on: bronchoconstrictor response to ACh or methacholine (MCh); settings: rats, inhalation dosing; cited from earlier work
COPD patients = settings: nebulized, once‐daily dosing; cited from earlier work
hM1 mAChR [22] = molecular target: T7, hM1 mAChR; assay: Competition radioligand binding, [^3H]NMS
histamine H1 receptor = histamine H1 receptor (Cavia porcellus, UniProt P31389); assay: H1 radioligand binding, concentration-response; settings: selectivity hM3 over H1
hM3 mAChR [23] = molecular target: T3, hM3 mAChR; assay: Association and dissociation binding kinetics
hM5 mAChR [24] = molecular target: T4, hM5 mAChR; assay: Competition radioligand binding, [^3H]NMS
[25] = tested alone in cells expressing mAChRs

T3 sequence (P20309 whole entry): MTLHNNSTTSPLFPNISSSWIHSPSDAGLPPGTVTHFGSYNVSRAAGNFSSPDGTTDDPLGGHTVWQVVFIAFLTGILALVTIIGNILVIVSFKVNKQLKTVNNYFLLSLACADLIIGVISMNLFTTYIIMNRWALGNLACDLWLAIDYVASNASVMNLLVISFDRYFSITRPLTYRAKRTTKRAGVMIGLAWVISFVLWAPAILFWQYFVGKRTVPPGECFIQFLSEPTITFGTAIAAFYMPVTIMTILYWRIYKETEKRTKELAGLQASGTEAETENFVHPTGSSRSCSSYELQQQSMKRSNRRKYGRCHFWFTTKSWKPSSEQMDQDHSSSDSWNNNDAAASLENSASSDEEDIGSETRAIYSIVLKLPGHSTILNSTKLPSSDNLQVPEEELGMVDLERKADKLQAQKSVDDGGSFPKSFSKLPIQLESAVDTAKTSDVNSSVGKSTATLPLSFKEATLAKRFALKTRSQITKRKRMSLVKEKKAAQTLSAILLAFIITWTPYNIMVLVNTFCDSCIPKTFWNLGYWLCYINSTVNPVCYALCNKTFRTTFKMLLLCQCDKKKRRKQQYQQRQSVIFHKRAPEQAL
Sequence of cloned human 5‐HT4(C) receptors (Q13639 1-380 isoform Q13639-4): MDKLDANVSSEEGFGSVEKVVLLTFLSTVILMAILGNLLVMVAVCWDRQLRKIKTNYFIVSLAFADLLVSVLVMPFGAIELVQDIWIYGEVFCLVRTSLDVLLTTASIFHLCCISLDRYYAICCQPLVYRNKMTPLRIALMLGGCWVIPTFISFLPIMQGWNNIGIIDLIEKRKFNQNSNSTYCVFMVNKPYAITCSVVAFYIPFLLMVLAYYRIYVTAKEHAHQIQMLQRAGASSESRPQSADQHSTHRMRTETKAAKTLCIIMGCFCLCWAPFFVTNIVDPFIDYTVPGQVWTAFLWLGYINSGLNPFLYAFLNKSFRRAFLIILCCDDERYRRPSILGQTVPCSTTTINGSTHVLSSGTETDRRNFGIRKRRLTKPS
Sequence of histamine H1 receptor (P31389 whole entry): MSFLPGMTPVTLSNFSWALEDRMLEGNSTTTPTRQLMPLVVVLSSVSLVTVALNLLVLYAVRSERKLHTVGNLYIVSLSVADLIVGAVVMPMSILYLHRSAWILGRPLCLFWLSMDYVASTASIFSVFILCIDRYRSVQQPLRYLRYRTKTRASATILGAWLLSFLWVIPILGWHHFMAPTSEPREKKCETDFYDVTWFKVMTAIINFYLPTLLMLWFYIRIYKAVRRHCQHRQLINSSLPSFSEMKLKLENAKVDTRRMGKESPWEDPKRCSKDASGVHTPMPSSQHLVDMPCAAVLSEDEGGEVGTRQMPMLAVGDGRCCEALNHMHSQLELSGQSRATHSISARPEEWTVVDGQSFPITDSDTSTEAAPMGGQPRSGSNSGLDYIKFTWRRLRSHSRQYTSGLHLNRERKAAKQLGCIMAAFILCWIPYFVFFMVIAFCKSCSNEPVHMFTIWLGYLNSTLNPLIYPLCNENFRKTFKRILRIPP
Sequence of Guinea Pig H1 (central) (P31389 whole entry): as above

## CC(C)[N+]1(C)[C@@H]2CC[C@H]1C[C@@H](OC(=O)C(CO)c1ccccc1)C2 (stereo partly drawn) [Ipratropium, reference compound]
cM5 mAChR
  Ki: 0.191 nM
[1]
  nature of antagonism: surmountable antagonism
[2]; ACh contraction, surmountable antagonist
  pA2: 9.2 ± 0.1
hM2 mAChR [3]
  dissociation from hM2 receptors: dissociate rapidly
hM3 mAChR [4]
  dissociation from hM3 receptors: dissociate rapidly

## CN(CCN1CCC(OC(=O)Nc2ccccc2-c2ccccc2)CC1)C(=O)c1ccc(CN2CCC(C(N)=O)CC2)cc1 [Revefenacin, biphenyl‐2‐ylcarbamic acid 1‐(2‐{[4‐(4‐carbamoylpiperidin‐1‐ylmethyl)benzoyl]methylamino}ethyl)piperidin‐4‐yl ester]
hM5 mAChR [5]
  Kd: 4.2 nM
hM3 mAChR [6]
  Kb: 0.0933 nM
hM4‐Gα16 mAChR
  Ki: 0.0112 nM
hM4‐Gα16 mAChR; [25]
  Ca^2+ response when tested alone (agonist activity), hM4‐Gα16: no Ca^2+ response
[7]
  activity at a majority of the targets: < 75%
hM4 mAChR [8]; hM4 KI, [^3H]NMS competition, from IC50 by Cheng and Prusoff
  Ki: 0.56 nM
hM4 mAChR [8]; hM4 pKI, [^3H]NMS competition, CHO-K1 membranes, 37°C, mean ± SD
  Ki: 0.55 nM
hM2 mAChR [9]
  stimulation of [^35S]GTPγS binding at hM2 (agonist activity): did not stimulate
hM2 mAChR [10]
  dissociation t 1/2 M2: 6.9 min
hM4 mAChR [11]
  Kd: 0.46 nM
cM5 mAChR
  Ki: 0.363 nM
cM5 mAChR; [25]
  Ca^2+ response when tested alone (agonist activity), cM5: no Ca^2+ response
[12]
  offset t 1/2: > 10 h
[2]; IC90 concentration, washout, time for response to recover by 50%
  offset t 1/2: 13.3 h
[2]; from pKB
  potency lower than that of tiotropium: 4 fold
[2]; pKB vs pA2
  potency greater than that of ipratropium: 20 fold
hM3 mAChR [13]
  Ki: 0.0955 nM
hM3 mAChR [13]; [25]
  Ca^2+ response when tested alone (agonist activity), hM3: no Ca^2+ response
hM1 mAChR [14]
  Ki: 0.126 nM
hM1 mAChR [14]; [25]
  Ca^2+ response when tested alone (agonist activity), hM1: no Ca^2+ response
[15]
  duration of bronchoprotective effect: ≥ 24 h
hM1 mAChR [16]
  Kd: 1 nM
hM3 mAChR [17]
  Ki: 0.2 nM and 0.178 nM
hM3 mAChR [18]
  Kd: 0.39 nM
[19]
  offset t 1/2: > 16 h
Guinea Pig H1 (central)
  inhibition at 1 µM: 87%
[20]
  EC50: 257 nM
[20]; selectivity hM3 over 5-HT4
  potency at 5‐HT4 receptor lower than Ki at the hM3 receptor: > 1400 fold
[21]
  duration of bronchoprotective effect: ≥ 24 h
COPD patients
  duration of bronchodilation: 24 h
hM1 mAChR [22]
  Ki: 0.417 nM
Histamine H1 receptor
  potency at histamine H1 receptor lower than Ki at the hM3 receptor: > 2700 fold
hM3 mAChR [23]
  Kd: 0.0933 nM
  hM3 dissociation t 1/2 shorter than that of tiotropium: 2.8 fold
hM3 mAChR [23]; 37°C
  dissociation t 1/2 M3: 1.37 h
hM5 mAChR [24]; hM5 KI, [^3H]NMS competition, from IC50 by Cheng and Prusoff
  Ki: 6.7 nM
hM5 mAChR [24]; hM5 pKI, [^3H]NMS competition, CHO-K1 membranes, 37°C, mean ± SD
  Ki: 6.31 nM

## C[N+]1(C)[C@@H]2C[C@@H](OC(=O)C(O)(c3cccs3)c3cccs3)C[C@H]1[C@@H]1O[C@@H]12 [Tiotropium, reference compound]
hM4‐Gα16 mAChR
  Ki: 0.0617 nM
hM4 mAChR [8]
  Ki: 0.0204 nM
cM5 mAChR
  Ki: 0.105 nM
[1]
  nature of antagonism: potent insurmountable antagonist
[19]
  offset t 1/2: > 20 h
hM5 mAChR [24]
  Ki: 0.0813 nM
